Assay results as given in patent publication US20080171745A1, “METHODS RELATING TO THE TREATMENT OF FIBROSIS” (UNIVERSITY OF WASHINGTON, priority 2005, published 2008).

Columns and labels:
[1] = tested on: C57/B16 mice; experiment: Bleomycin induced murine pulmonary fibrosis, lung sections stained with trichrome, body weight and survival; format: in vivo; settings: for disease progression, as judged by reduced mortality, histopathology and endogenous gene expression: bleomycin murine model, 5 mg/Kg/day
Procedure: Murine models of bleomycin induced fibrosis have been developed in order to study fibrotic disease progression.
There is an absence of airway epithelium in lower left compared to upper left (see arrow heads) and extensive collagen deposition (lower left). On the sixth day, either saline (upper right) or ICG-001 (5 mgs/Kg/day) was administered for 10 days after which the mice were sacrificed and sectioned. Of interest is the upper right (saline treatment) showing lack of normal airway epithelialization, extensive collagen deposition and intra-airway hypercellularity (fibroblasts and inflammatory influx).

[2] = tested on: IPF patient fibroblasts; experiment: IPF patient fibroblasts, Western blots on whole cell lysates; format: cell-based, human
Procedure: Western blots for S100A4 (also know as FSP-1 or fibroblast specific protein-1) and E-Cadherin were performed on whole cell lysates.

[3] = tested on: collagen 1A2; experiment: RT-PCR in bleomycin treated mice; format: in vivo; settings: 5 mgs/Kg/day s.c.
[4] = tested on: S100A4; experiment: RT-PCR in bleomycin treated mice; format: in vivo; settings: 5 mgs/Kg/day s.c.
[5] = bleomycin 5 days, then 5 mgs/Kg/day for 10 days
[6] = RPMI 1640+10% FBS, 2 days, whole cell lysates

## O=C1[C@H](Cc2ccc(O)cc2)N2C(=O)CCN(C(=O)NCc3ccccc3)[C@H]2CN1Cc1cccc2ccccc12 [ICG-001]
[1]; [5]
  airway histology (epithelialization): airway looks essentially normal
  body weight: regained normal body weight
  collagen levels (trichrome stain): normal collagen levels
[1]; bleomycin 5 days, then 5 mgs/Kg/day for 10 days, untreated controls did not survive
  survival: survived
[1]
  disease progression, as judged by reduced mortality, histopathology and endogenous gene expression: not only halted but reversed disease progression
[1]; listed as ICG-011, 5 mg/kg/day
  disease progression, as judged by reduced mortality, histopathology and endogenous gene expression: not only halts but reverses disease progression
[2]; IPF patient fibroblasts
  S100A4 and E-cadherin expression at the mRNA level: this is also true at the mRNA level
[2]; [6]
  E-Cadherin expression, Western blot: increased E-Cadherin expression
  S100A4 (FSP-1) expression, Western blot: decreased S100A4 expression
[3]
  collagen 1A2 message (RT-PCR): reduced essentially to negative control
[4]
  S100A4 message (RT-PCR): reduced essentially to negative control
